{
  "source": "patent US20210340572A1",
  "about": "“HIGH-CONTENT IMAGING OF MICROFLUIDIC DEVICES” (EMULATE, Inc., priority 2019, published 2021)",
  "key": {"[1]": {"test_system": "primary human hepatocytes and liver sinusoidal endothelial cells (LSECs)", "test": "High-content confocal imaging of microfluidic devices seeded with liver cells", "assay_type": "cell-based", "conditions": "10 μM, six hours of exposure", "protocol": "Microfluidic devices were obtained from Emulate Inc. (USA) and are illustrated in FIG. 1A. The channels of the microfluidic devices were coated with a proprietary mixture of extracellular matrix and were incubated overnight at 37° C. Primary human cryopreserved hepatocytes sourced from ThermoFisher, as one example, were seeded in the top channel at a density of 3.5×10^6 cells/mL, and were left to form an attached monolayer at 37° C. in a humidified incubator with a 95%/5% ratio of air to CO2.\nTwenty-four hours after seeding, the hepatocyte monolayer was overlaid with Matrigel Matrix sourced from Corning, USA. Primary human cryopreserved liver sinusoidal endothelial cells, also known as LSECs, were seeded on the bottom channel of the microfluidic device at a density of 2 to 4×10^6 cells/mL in endothelial medium, also known as CSC medium or Base LSEC Culture Medium; CSC basal Medium plus Culture-Boost (2%), Cell Systems, and Pen/Strep (1%), Sigma. In some embodiments, endothelial cells are cultured in Complete LSEC Culture Medium, Base LSEC Culture Medium plus 10% FBS.\nMicrofluidic devices were inverted for 2 hours to allow attachment underneath the membrane, and then inverted back before being connected to a platform containing a pneumatic pump source from Emulate Inc. Media was flowed through both channels at a flow rate of 30 μL/hour and was refreshed every other day.\nThe effects of agents, such as staurosporine on cell phenotype was evaluated. Microfluidic devices were perfused with staurosporine (0 and 10 μM) for 6 hours at a flow rate of 30 μL/hour. A compound was also tested in the microfluidic devices seeded with liver cells. The microfluidic devices seeded with liver cells were perfused with the compound at the concentrations of 0.1 μM, 1 μM or 10 μM for 3 hours, after which the compound was removed from the media flow. The protocol was chosen as it was analogous to how the compound has been evaluated in vivo. […]"}, "[2]": {"test": "Phase I dose-escalating study, clinical chemistry (ALT, AST)", "assay_type": "in vivo, human", "conditions": "Phase I clinical trial", "protocol": "A double-blind, placebo-controlled, randomized, dose-escalating, sequential group design was conducted in 2 Parts. Subjects received daily doses of JNJ-28312141 or placebo for a total of 2 weeks (the first dose on Day 1 and then daily on Days 3 to 14). Part 1 included 5 cohorts of healthy male or female subjects. In Part 2 of the study, 2 cohorts of postmenopausal women (PMW) were enrolled. Within each cohort of 12 subjects, 9 subjects were randomized to JNJ-1, and 3 subjects were randomized to placebo. Dose escalation only occurred after the Sponsor and the Investigator had performed a satisfactory review of the preliminary safety data including those obtained on the post-study follow up visit (anytime between Days 30 to 32), and of the drug concentration and PK data (if available) at the current dose level. In addition to efficacy endpoints, and pharmacokinetics, an assessment of safety included measurement of clinical chemistry parameters, including ALT and AST."}, "Kupffer cells": {"test_system": "Kupffer cells", "test": "Kupffer cell count (CD68-positive cells) in human chips", "assay_type": "cell-based", "conditions": "human quadruple-cell chips", "protocol": "Microfluidic devices seeded with liver cells and static sandwich plate cultures were fixed with 4% paraformaldehyde for 15 minutes at room temperature, washed with PBS, and permeabilized (saponin 1% with 10% serum in PBS). Blocking and incubation with the primary antibodies (overnight in PBS containing 1% BSA or PBS containing 10% serum and 1% BSA) was followed by a two-hour incubation with secondary antibodies (Cell Signaling, Danvers, Mass., USA) in the same blocking buffer. Immunostaining was performed with specific primary antibodies (anti-MRP2, anti-stabilin-1, anti-BSEP, anti-α-SMA, anti-CD68; Abcam, Cambridge, Mass., USA) and images were acquired with either an Olympus fluorescence microscope (IX83) or Zeiss confocal microscope (AxiovertZ1 LSM880).\nThe number of CD68- or α-SMA-positive cells in the vascular channel in each group was counted in each field of view ([…]) and quantified."}, "[3]": {"test": "Repeat-dose toxicity study of JNJ-1 in dogs", "assay_type": "in vivo", "conditions": "dog study", "protocol": "(§1) JNJ-1, prepared in purified water, was administered once daily for 14 days to 5 male and 5 female rats at doses of 5, 25, and 125 mg/kg. In a separate study, JNJ-1, also in purified water, was administered once daily for 4 weeks to 5 male and 5 female dogs at 0 or 40 mg/kg/day, and to 3 males and 3 female dogs at 2 or 10 mg/kg/day. Mortality, clinical observations, body weight, food consumption, clinical pathology, gross necropsy and microscopic examination of selected tissues, and toxicokinetics were evaluated. Rats or dogs were fasted overnight prior to blood collection for measurement of clinical pathology parameters (including AST and ALT) at the end of 14 days (rats) or 4 weeks (dogs) of dosing. Histology slides (hematoxylin and eosin staining and Mason's Trichrome staining) of the liver tissues were prepared and evaluated microscopically. The quantification of JNJ-1 was conducted using a qualified liquid chromatographic-triple quadrupole mass spectrometric (LC-MS/MS) procedure."}, "[4]": {"test_system": "microfluidic devices seeded with human liver cells", "test": "Cytokine release (IL-6, MCP-1, IP-10) from the vascular channel of human chips", "assay_type": "cell-based", "conditions": "human quadruple-cell chips", "protocol": "Cytokines: Release of IL-6, MCP-1, and IP-10 from the vascular channel was quantified using U-PLEX biomarker human assays (Meso Scale Diagnostics, Rockville, Md., USA) and the assays were performed according to the protocol provided by the vendor."}, "[5]": {"test": "Repeat-dose toxicity study of JNJ-1 in rats", "assay_type": "in vivo", "conditions": "rat study", "protocol": "as §1"}, "BSEP": {"target": "T1, BSEP (Homo sapiens, UniProt O95342)", "T1 construct": "Primary rat, dog or human hepatocytes were cultured in the upper parenchymal channel; endogenous in cells; host or cells: primary human hepatocytes in a microfluidic Liver-Chip, co-cultured with LSECs", "T1 sequence (O95342 whole entry)": "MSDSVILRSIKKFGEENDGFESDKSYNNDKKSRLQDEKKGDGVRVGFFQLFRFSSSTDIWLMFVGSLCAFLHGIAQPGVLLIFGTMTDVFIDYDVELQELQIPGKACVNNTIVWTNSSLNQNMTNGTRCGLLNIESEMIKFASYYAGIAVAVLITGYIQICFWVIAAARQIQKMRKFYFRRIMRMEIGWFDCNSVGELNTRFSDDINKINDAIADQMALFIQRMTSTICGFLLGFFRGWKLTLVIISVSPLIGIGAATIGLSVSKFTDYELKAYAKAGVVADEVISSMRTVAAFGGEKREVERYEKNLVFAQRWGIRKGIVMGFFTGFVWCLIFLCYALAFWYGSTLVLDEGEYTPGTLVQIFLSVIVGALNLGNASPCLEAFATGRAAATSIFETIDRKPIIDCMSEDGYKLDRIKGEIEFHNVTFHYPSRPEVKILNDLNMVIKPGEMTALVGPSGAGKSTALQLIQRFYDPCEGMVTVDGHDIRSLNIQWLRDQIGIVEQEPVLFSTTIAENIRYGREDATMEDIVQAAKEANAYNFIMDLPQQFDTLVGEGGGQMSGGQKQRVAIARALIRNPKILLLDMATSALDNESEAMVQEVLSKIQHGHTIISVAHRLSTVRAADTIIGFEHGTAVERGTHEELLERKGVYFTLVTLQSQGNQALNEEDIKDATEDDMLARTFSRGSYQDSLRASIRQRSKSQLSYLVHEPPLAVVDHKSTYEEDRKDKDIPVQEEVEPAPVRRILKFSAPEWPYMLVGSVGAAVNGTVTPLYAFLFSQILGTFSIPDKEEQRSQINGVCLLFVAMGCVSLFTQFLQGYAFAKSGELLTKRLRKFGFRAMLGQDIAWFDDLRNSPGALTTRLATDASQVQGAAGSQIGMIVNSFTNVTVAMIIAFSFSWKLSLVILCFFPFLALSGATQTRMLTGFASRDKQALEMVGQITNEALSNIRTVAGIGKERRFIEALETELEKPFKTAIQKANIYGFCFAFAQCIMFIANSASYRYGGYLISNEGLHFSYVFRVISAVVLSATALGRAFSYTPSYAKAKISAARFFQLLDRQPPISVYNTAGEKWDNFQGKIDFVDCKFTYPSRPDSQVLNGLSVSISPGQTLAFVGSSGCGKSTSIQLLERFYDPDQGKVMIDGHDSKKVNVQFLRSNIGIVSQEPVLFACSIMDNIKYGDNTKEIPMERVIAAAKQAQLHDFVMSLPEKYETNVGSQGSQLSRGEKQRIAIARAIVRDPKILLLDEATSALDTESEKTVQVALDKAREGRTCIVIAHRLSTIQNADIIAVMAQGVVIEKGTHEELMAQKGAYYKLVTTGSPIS", "test": "CLF efflux (BSEP activity) in human hepatocytes on chip", "assay_type": "cell-based", "conditions": "30 μM", "from_the_text": "Microfluidic devices seeded with liver cells were stained in the upper channel with 5(6)-Carboxy-2′,7′-dichlorofluorescein diacetate (CDFDA) (ThermoFisher) to visualize bile canaliculi and MRP2 activity, cholyl-lysyl-fluorescein (CLF) (Corning) to visualize bile canaliculi and BSEP activity, Nile red (ThermoFisher) or AdipoRed (Lonza) to visualize lipid droplet accumulation, Tetramethylrhodamine, methyl ester (TMRM) (ThermoFisher) to visualize active mitochondria, and CellROX® (ThermoFisher) to visualize cellular oxidative stress. Each staining solution was prepared in blank medium or compound dosing medium and added to the upper channel, incubated for 15 minutes at 37° C., and washed three times with medium. The stained microfluidic devices were imaged using a specific filter, and were de-blurred with Olympus cellSens software. Using ImageJ-Fiji, the fluorescent channel images were histogram adjusted to remove background, followed by fluorescence quantification using the Integrated Density calculation function.\nBoth a brightfield and a fluorescence image was taken from each field of view. […] These criteria were determined empirically using a small test set of images and then applied to images for the analysis. […] The data for treated and control samples were quantified by computing the area percentage of CLF-labeled bile canaliculi within each field of view (FOV)."}, "[6]": {"test_system": "microfluidic devices seeded with rat liver cells", "test": "Albumin secretion / hepatocyte function, microfluidic devices seeded with rat liver cells", "assay_type": "cell-based", "conditions": "Hepatocyte, 168 h; dual-cell rat chips, daily administration 1-100 μM, 7 days; read-out: IC50, decrease in albumin secretion", "description": "(§2) Prior to cell seeding, microfluidic devices, in this case S-1 Chips (Emulate, Inc. Boston, Mass., USA), were functionalized using Emulate's proprietary protocols and reagents (ERT™), including those described herein. After surface functionalization, both channels of the microfluidic device were coated with species-specific extracellular matrices (ECM). For the human bound microfluidic device, a mixture of collagen type I (Corning, Corning, N.Y., USA) and fibronectin, e.g. bovine, (Gibco) was used; for the rat bound microfluidic devices a mixture of collagen type IV, e.g. human placenta, (Sigma-Aldrich, St. Louis, Mo., USA) and fibronectin (Gibco) was used; for the dog bound microfluidic devices a mixture of collagen I (Corning), collagen type IV (Sigma-Aldrich), and fibronectin (Gibco) was used. […] For the dual-cell culture model (hepatocytes and endothelial cells), the LSECs were seeded at a concentration of 2-4 million cells/mL in the lower vascular channel. […] Albumin secretion from the upper channel was quantified using ELISA kits for human, rat, and dog models effluent samples (human and rat: Abcam; dog: Immunology Consultants Laboratory, Inc., Portland, Oreg., USA) and the assays were performed according to the protocol provided by each vendor."}, "[7]": {"test_system": "3D human spheroid hepatic cultures", "conditions": "compared with human chip IC50; cited from earlier work"}, "[8]": {"test_system": "microfluidic devices seeded with human liver cells", "test": "Albumin secretion, microfluidic devices seeded with human liver cells", "assay_type": "cell-based", "description": "Prior to cell seeding, microfluidic devices, in this case S-1 Chips (Emulate, Inc. Boston, Mass., USA), were functionalized using Emulate's proprietary protocols and reagents (ERT™), including those described herein. After surface functionalization, both channels of the microfluidic device were coated with species-specific extracellular matrices (ECM). For the human bound microfluidic device, a mixture of collagen type I (Corning, Corning, N.Y., USA) and fibronectin, e.g. bovine, (Gibco) was used; for the rat bound microfluidic devices a mixture of collagen type IV, e.g. human placenta, (Sigma-Aldrich, St. Louis, Mo., USA) and fibronectin (Gibco) was used; for the dog bound microfluidic devices a mixture of collagen I (Corning), collagen type IV (Sigma-Aldrich), and fibronectin (Gibco) was used. […] For the dual-cell culture model (hepatocytes and endothelial cells), the LSECs were seeded at a concentration of 2-4 million cells/mL in the lower vascular channel. […] After cell seeding, the upper channel of the microfluidic device was maintained in William's E Medium (WEM) containing Glutamax (Gibco), ITS+(Corning), dexamethasone (Sigma-Aldrich), ascorbic acid (Sigma-Aldrich), fetal bovine serum (FBS) (Sigma-Aldrich), and Penicillin/Streptomycin (Sigma-Aldrich). The vascular channel of the microfluidic device was maintained with species-specific endothelial media (Emulate, Inc.). Two days after seeding, the microfluidic devices were connected to the Human Emulation System™ (Emulate, Inc.), as described in part herein, and both of the microfluidic device channels were perfused at 30 μL/hr to provide a continuous supply of fresh media for the duration of the experiments. Albumin secretion from the upper channel was quantified using ELISA kits for human, rat, and dog models effluent samples (human and rat: Abcam; dog: Immunology Consultants Laboratory, Inc., Portland, Oreg., USA) and the assays were performed according to the protocol provided by each vendor."}, "[9]": {"test_system": "microfluidic devices seeded with dog liver cells", "test": "Albumin secretion, microfluidic devices seeded with dog liver cells", "assay_type": "cell-based", "conditions": "Canis lupus familiaris, 168 h; dual-cell dog chips, daily administration 1-100 μM, 7 days; read-out: IC50, decrease in albumin secretion", "description": "as §2"}, "[10]": {"conditions": "human plasma; cited from earlier work"}, "[11]": {"test_system": "microfluidic devices seeded with human liver cells", "test": "APAP metabolite quantification by LC-MS in human chips", "assay_type": "in vitro ADME", "conditions": "daily 3 mM for 20 days, flow 10 μL/hr", "description": "After APAP exposure to microfluidic devices seeded with human liver cells, effluent metabolite levels were quantified using LC-MS analysis. […] APAP-Glucuronide (APAP-Glu), the primary metabolite of APAP, was not quantified using a standard curve. Rather, the LC-MS peak area of APAP-Glu was reported corresponding to each sample."}},
  "data": [
    {"smiles": "CN[C@@H]1C[C@H]2O[C@@](C)([C@@H]1OC)n1c3ccccc3c3c4c(c5c6ccccc6n2c5c31)C(=O)NC4", "note": "[staurosporine]", "values": [
      {"measurement": "LSECs (cell number)", "setting": "[1]", "result": "complete loss of LSECs"},
      {"measurement": "apoptotic marker (CC3)", "setting": "[1]", "result": "marked increases"},
      {"measurement": "hepatocyte cell number", "setting": "[1]", "result": "little if any effect"}
    ]},
    {"smiles": "CN(C)CC(=O)N1CCC(c2ccc(NC(=O)c3nc(C#N)c[nH]3)c(C3=CCCCC3)c2)CC1", "note": "[JNJ compound]", "values": [
      {"measurement": "healthy subjects with elevation of alanine aminotransferase (ALT)", "setting": "[2]", "result": "3/12"},
      {"measurement": "healthy subjects with elevation of aspartate aminotransferase (AST)", "setting": "[2]", "result": "7/12"},
      {"measurement": "Kupffer cells (CD68-positive cells)", "setting": "Kupffer cells", "result": "decreased number"},
      {"measurement": "microscopic changes in the liver", "setting": "[3]", "result": "without any correlative microscopic changes"},
      {"measurement": "transaminases", "setting": "[3]", "result": "Dose-related elevation"},
      {"measurement": "interleukin 6 (IL-6) in the vascular channel", "setting": "[4]", "result": "dose-dependent decrease"},
      {"measurement": "monocyte chemoattractant protein-1 (MCP-1) in the vascular channel", "setting": "[4]", "result": "dose-dependent decrease"},
      {"measurement": "microscopic changes in the liver", "setting": "[5]", "result": "without any correlative microscopic changes"},
      {"measurement": "transaminases", "setting": "[5]", "result": "Dose-related elevation"}
    ]},
    {"smiles": "COc1ccccc1Oc1c(NS(=O)(=O)c2ccc(C(C)(C)C)cc2)nc(-c2ncccn2)nc1OCCO", "note": "[bosentan]", "values": [
      {"measurement": "intracellular accumulation of CLF", "setting": "BSEP", "result": "intracellular accumulation"},
      {"measurement": "reduction in CLF efflux", "setting": "BSEP; co-treatment with CLF", "result": "> 50", "unit": "%"},
      {"measurement": "IC50", "setting": "[6]", "result": "> 100", "unit": "µM"},
      {"measurement": "IC50 in 3D human spheroid hepatic cultures relative to human chip", "setting": "[7]", "result": "more than 10 fold higher"},
      {"measurement": "IC50", "setting": "[8]; 72 h, dual-cell human chips, daily administration 1-100 μM, 3 days, read-out: IC50, decrease in albumin secretion", "result": 10, "unit": "µM"},
      {"measurement": "IC50", "setting": "[9]", "result": 30, "unit": "µM"},
      {"measurement": "plasma concentration (Cmax) associated with DILI in humans", "setting": "[10]", "result": 7.4, "unit": "µM"}
    ]},
    {"smiles": "CC(=O)Nc1ccc(O)cc1", "note": "[APAP, acetaminophen]", "values": [
      {"measurement": "APAP glucuronide in parenchymal and vascular channels", "setting": "[11]", "result": "significant amounts"},
      {"measurement": "albumin synthesis / secretion", "setting": "[8]; quadruple-cell human chips, 7 days", "result": "decreased"}
    ]}
  ]
}
